Laboratory results taken from patent US20240059689A1, “PURINE DERIVATIVES AS ANTICANCER AGENTS” (Tango Therapeutics, Inc., priority 2021, published 2024).
pIC50: −log10 of the molar value.

Key:
[1] = system: HCC1954; experiment: Viability assay, BRCA1 WT cell line HCC1954; format: cell-based; conditions: Homo sapiens, HCC1954, viability, read-out: HCC1954 rel IC50
Text: (§1) Table 1 also indicates IC50 values in a viability assay for a non-isogenic pair of BRCA1 mutant (column 5-MDA-MB-436) and BRCA1 WT (column 6—HCC1954) cell lines. These values indicate the effect of treatment with compound on cell survival.

[2] = molecular target: USP1-UAF1 (Homo sapiens, UniProt O94782); experiment: Ubiquitin Rhodamine assay of USP1-UAF1 activity; format: biochemical
Method: Certain compounds of the disclosure were assessed for USP1-UAF1 activity in a Ubiquitin Rhodamine assay as described in Biology Example 1.

[3] = system: MDA-MB-436; experiment: Viability assay, BRCA1 mutant cell line MDA-MB-436; format: cell-based; conditions: Homo sapiens, MDA-MB-436, viability, BRCA1 mutant MDA-MB-436; read-out: MDA-MB-436 rel IC50
Text: as §1

[4] = system: monoubiquitinated PCNA; experiment: AlphaLISA assay measuring monoubiquitinated PCNA in MDA-MB-436; format: cell-based; conditions: Homo sapiens, MDA-MB-436, monoubiquitinated PCNA, read-out: Alpha Lisa IC50
Text: Table 1 also indicates IC50 values for exemplary compounds in an AlphaLISA assay measuring monoubiquitinated PCNA in a BRCA1 mutant cell line (MDA-MB-436; column 7).

USP1-UAF1, sequence (O94782 whole entry): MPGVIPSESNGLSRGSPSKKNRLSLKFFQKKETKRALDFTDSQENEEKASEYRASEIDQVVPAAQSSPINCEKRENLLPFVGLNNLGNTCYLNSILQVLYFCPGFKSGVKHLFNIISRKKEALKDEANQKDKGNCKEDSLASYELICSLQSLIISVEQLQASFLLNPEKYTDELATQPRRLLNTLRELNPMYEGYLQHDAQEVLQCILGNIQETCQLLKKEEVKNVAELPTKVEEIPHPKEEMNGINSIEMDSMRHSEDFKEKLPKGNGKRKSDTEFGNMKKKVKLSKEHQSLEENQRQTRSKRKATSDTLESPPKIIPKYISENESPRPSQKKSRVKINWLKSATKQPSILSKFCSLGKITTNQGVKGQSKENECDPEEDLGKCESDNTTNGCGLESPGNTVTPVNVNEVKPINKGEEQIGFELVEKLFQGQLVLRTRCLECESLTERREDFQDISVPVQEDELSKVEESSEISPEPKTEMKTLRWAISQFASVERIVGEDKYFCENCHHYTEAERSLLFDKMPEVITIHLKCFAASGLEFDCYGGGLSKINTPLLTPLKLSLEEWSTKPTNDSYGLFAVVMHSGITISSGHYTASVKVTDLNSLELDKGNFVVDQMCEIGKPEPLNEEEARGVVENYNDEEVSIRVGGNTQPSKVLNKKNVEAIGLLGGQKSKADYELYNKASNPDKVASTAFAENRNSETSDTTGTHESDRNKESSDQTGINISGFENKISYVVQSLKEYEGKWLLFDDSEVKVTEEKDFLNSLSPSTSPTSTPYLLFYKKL
USP1-UAF1, sequence (Q8TAF3 whole entry partner): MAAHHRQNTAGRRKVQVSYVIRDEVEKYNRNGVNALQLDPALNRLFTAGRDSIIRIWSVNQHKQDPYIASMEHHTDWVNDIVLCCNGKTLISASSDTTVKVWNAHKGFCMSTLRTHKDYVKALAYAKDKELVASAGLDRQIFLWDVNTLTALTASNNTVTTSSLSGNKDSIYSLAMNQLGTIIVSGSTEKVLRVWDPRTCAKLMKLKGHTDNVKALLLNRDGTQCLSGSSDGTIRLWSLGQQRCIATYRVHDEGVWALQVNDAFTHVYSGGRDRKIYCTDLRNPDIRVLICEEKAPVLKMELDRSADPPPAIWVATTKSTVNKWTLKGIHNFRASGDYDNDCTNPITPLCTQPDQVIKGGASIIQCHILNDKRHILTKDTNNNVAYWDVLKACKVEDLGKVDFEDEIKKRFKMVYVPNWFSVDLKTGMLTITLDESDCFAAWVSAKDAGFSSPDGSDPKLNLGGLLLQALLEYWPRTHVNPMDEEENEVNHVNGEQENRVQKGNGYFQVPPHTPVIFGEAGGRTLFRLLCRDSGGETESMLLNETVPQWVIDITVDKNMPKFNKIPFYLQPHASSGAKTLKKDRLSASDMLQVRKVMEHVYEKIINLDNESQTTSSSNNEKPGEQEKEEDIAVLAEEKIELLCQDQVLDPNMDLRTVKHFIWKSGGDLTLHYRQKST

| SMILES | pIC50 [1] | pIC50 [2] | pIC50 [3] | pIC50 [4] |
| --- | --- | --- | --- | --- |
| CC(C)c1cc(F)ccc1-c1ncc2c(n1)n(Cc1ccc(-c3nc(C(F)(F)F)cn3C)cc1)c(=N)n2C [Example B-10, 2-(4-fluoro-2-isopropylphenyl)-7-methyl-9-(4-(1-methyl-4-(trifluoromethyl)-1H-imidazol-2-yl)benzyl)-7,9-dihydro-8H-purin-8-imine] | 5.00 to 6.60 | > 7.52 | 6.60 to 7.00 | 6.60 to 7.00 |
| CC(C)c1ccc(F)cc1-c1ncc2c(n1)n(Cc1ccc(-c3nc(C(F)(F)F)cn3C)cc1)c(=N)n2C [Example B-11, 2-(5-fluoro-2-isopropylphenyl)-7-methyl-9-(4-(1-methyl-4-(trifluoromethyl)-1H-imidazol-2-yl)benzyl)-7,9-dihydro-8H-purin-8-imine] | 5.00 to 6.60 | > 7.52 | 6.60 to 7.00 | > 7.00 |
| Cn1cc(C(F)(F)F)nc1-c1ccc(Cn2c(=N)n(C)c3cnc(-c4ccc(F)cc4OC(F)F)nc32)cc1 [Example T-001, 2-[2-(difluoromethoxy)-4-fluoro-phenyl]-7-methyl-9-[[4-[1-methyl-4-(trifluoromethyl)imidazol-2-yl]phenyl]methyl]purin-8-imine] | 5.00 to 6.60 | 7.00 to 7.52 | 5.00 to 6.60 | 5.00 to 6.60 |
| Cc1cccc(-c2ncc3c(n2)n(Cc2ccc(-c4nc(C(F)(F)F)cn4C)cc2)c(=N)n3C)c1C(C)C [Example T-002, 2-(2-isopropyl-3-methyl-phenyl)-7-methyl-9-[[4-[1-methyl-4-(trifluoromethyl)imidazol-2-yl]phenyl]methyl]purin-8-imine] | 5.00 to 6.60 | 7.00 to 7.52 | 6.60 to 7.00 | 5.00 to 6.60 |
| CC(C)c1ccccc1-c1ncc2c(n1)n(C1(c3ccc(-c4nc(C(F)(F)F)cn4C)cc3)CC1)c(=N)n2C [Example T-003, 2-(2-isopropylphenyl)-7-methyl-9-[1-[4-[1-methyl-4-(trifluoromethyl)imidazol-2-yl]phenyl]cyclopropyl]purin-8-imine] | 5.00 to 6.60 | > 7.52 | > 7.00 | > 7.00 |
| COc1cc(C(F)(F)F)nn1-c1ccc(Cn2c(=N)n(C)c3cnc(-c4ccccc4C(F)(F)F)nc32)cc1 [Example T-004] | 5.00 to 6.60 | 7.00 to 7.52 | 5.00 to 6.60 | 6.60 to 7.00 |
| COc1nccc(C#N)c1-c1ncc2c(n1)n(Cc1ccc(-c3nc(C(F)(F)F)cn3C)cc1)c(=N)n2C [Example T-008] | ≤ 5.00 | 7.00 to 7.52 | 6.60 to 7.00 | 6.60 to 7.00 |
| Cn1cc(C(F)(F)F)nc1-c1ccc(Cn2c(=N)n(C)c3cnc(-c4cccnc4C4CC4)nc32)cc1 [Example T-009, 2-(2-cyclopropyl-3-pyridyl)-7-methyl-9-[[4-[1-methyl-4-(trifluoromethyl)imidazol-2-yl]phenyl]methyl]purin-8-imine] | ≤ 5.00 | 7.00 to 7.52 | 5.00 to 6.60 | 6.60 to 7.00 |
| Cn1cc(C(F)(F)F)nc1-c1ccc(Cn2c(=N)n(C)c3cnc(-c4cccc5c4OC(F)(F)O5)nc32)cc1 [Example T-011, 2-(2,2-difluoro-1,3-benzodioxol-4-yl)-7-methyl-9-[[4-[1-methyl-4-(trifluoromethyl)imidazol-2-yl]phenyl]methyl]purin-8-imine] | 5.00 to 6.60 | 7.00 to 7.52 | 5.00 to 6.60 | 5.00 to 6.60 |
| COc1ncc(F)cc1-c1ncc2c(n1)n(Cc1ccc(-c3nc(C(F)(F)F)cn3C)cc1)c(=N)n2C [Example T-013] | ≤ 5.00 | 5.00 to 7.00 | 5.00 to 6.60 | 5.00 to 6.60 |
| Cc1cccc(C(C)C)c1-c1ncc2c(n1)n(Cc1ccc(-c3nc(C(F)(F)F)cn3C)cc1)c(=N)n2C [Example T-015, 2-(2-isopropyl-6-methyl-phenyl)-7-methyl-9-[[4-[1-methyl-4-(trifluoromethyl)imidazol-2-yl]phenyl]methyl]purin-8-imine] | ≤ 5.00 | > 7.52 | 6.60 to 7.00 | 6.60 to 7.00 |
| COCCn1c(=N)n(Cc2ccc(-c3nc(C(F)(F)F)cn3C)cc2)c2nc(-c3ccccc3C(C)C)ncc21 [Example T-016] | ≤ 5.00 | > 7.52 | > 7.00 | > 7.00 |
| Cc1ccc(C(C)C)c(-c2ncc3c(n2)n(Cc2ccc(-c4nc(C(F)(F)F)cn4C)cc2)c(=N)n3C)c1 [Example T-018, 2-(2-isopropyl-5-methyl-phenyl)-7-methyl-9-[[4-[1-methyl-4-(trifluoromethyl)imidazol-2-yl]phenyl]methyl]purin-8-imine] | 5.00 to 6.60 | 7.00 to 7.52 | 5.00 to 6.60 | 5.00 to 6.60 |
| COc1ncnc(C2CC2)c1-c1ncc2c(n1)n(Cc1ccc(-c3nc(C(F)(F)F)cn3C)cc1)c(=N)n2C [Example T-019, 2-(4-cyclopropyl-6-methoxy-pyrimidin-5-yl)-7-methyl-9-[[4-[1-methyl-4-(trifluoromethyl)imidazol-2-yl]phenyl]methyl]purin-8-imine] | ≤ 5.00 | 5.00 to 7.00 | 6.60 to 7.00 | > 7.00 |
| COc1cc(C)n(-c2ccc(Cn3c(=N)n(C)c4cnc(-c5ccccc5C5CC5)nc43)cc2)n1 [Example T-020] | 5.00 to 6.60 | 5.00 to 7.00 | 5.00 to 6.60 | 5.00 to 6.60 |
| Cn1cc(C(F)(F)F)nc1-c1ccc(Cn2c(=N)n(C)c3cnc(-c4ccccc4OC(F)F)nc32)cc1 [Example T-021, 2-[2-(difluoromethoxy)phenyl]-7-methyl-9-[[4-[1-methyl-4-(trifluoromethyl)imidazol-2-yl]phenyl]methyl]purin-8-imine] | ≤ 5.00 | 7.00 to 7.52 | 6.60 to 7.00 | > 7.00 |
| Cn1cc(C(F)(F)F)nc1-c1ccc(Cn2c(=N)n(C)c3cnc(-c4cccnc4N4CC(F)C4)nc32)cc1 [Example T-023] | ≤ 5.00 | 5.00 to 7.00 | 5.00 to 6.60 | 5.00 to 6.60 |
| Cn1cc(C(F)(F)F)nc1-c1ccc(Cn2c(=N)n(C)c3cnc(-c4cccc(F)c4OC(F)F)nc32)cc1 [Example T-027, 2-[2-(difluoromethoxy)-3-fluoro-phenyl]-7-methyl-9-[[4-[1-methyl-4-(trifluoromethyl)imidazol-2-yl]phenyl]methyl]purin-8-imine] | 5.00 to 6.60 | 7.00 to 7.52 | 5.00 to 6.60 | 5.00 to 6.60 |
| COc1cc(-c2nc(C(F)(F)F)cn2C)ccc1Cn1c(=N)n(C)c2cnc(-c3ccccc3C(F)(F)F)nc21 [Example T-029] | 5.00 to 6.60 | 5.00 to 7.00 | 6.60 to 7.00 | 6.60 to 7.00 |
| CC(C)c1ccccc1-c1ncc2c(n1)n(C[C@H]1CC[C@H](c3nc(C(F)(F)F)cn3C)CC1)c(=N)n2C [Example T-030] | 5.00 to 6.60 | 5.00 to 7.00 | > 7.00 | > 7.00 |
| CC(C)n1cc(C(F)(F)F)nc1-c1ccc(Cn2c(=N)n(C)c3cnc(-c4cccnc4OCC(F)(F)F)nc32)cc1 [Example T-031] | ≤ 5.00 | 5.00 to 7.00 | 5.00 to 6.60 | 5.00 to 6.60 |
| CCOc1cc(C(F)(F)F)nn1-c1ccc(Cn2c(=N)n(C)c3cnc(-c4ccccc4C(C)C)nc32)cc1 [Example T-032] | 5.00 to 6.60 | > 7.52 | > 7.00 | 6.60 to 7.00 |
| Cn1cc(C(F)(F)F)nc1-c1ccc(Cn2c(=N)n(C)c3cnc(-c4ccccc4OC(F)(F)F)nc32)cc1 [Example T-033, 7-methyl-9-[[4-[1-methyl-4-(trifluoromethyl)imidazol-2-yl]phenyl]methyl]-2-[2-(trifluoromethoxy)phenyl]purin-8-imine] | 5.00 to 6.60 | > 7.52 | > 7.00 | > 7.00 |
| CN(C)c1ncccc1-c1ncc2c(n1)n(Cc1ccc(-c3nc(C(F)(F)F)cn3C)cc1)c(=N)n2C [Example T-034] | ≤ 5.00 | 5.00 to 7.00 | 5.00 to 6.60 | 5.00 to 6.60 |
| CC(C)c1ccncc1-c1ncc2c(n1)n(Cc1ccc(-c3nc(C(F)(F)F)cn3C)cc1)c(=N)n2C [Example T-035] | ≤ 5.00 | 5.00 to 7.00 | 5.00 to 6.60 | 5.00 to 6.60 |
| Cn1cc(C(F)(F)F)nc1-c1ccc(Cn2c(=N)n(C)c3cnc(-c4c(F)cccc4OC(F)F)nc32)cc1 [Example T-036, 2-[2-(difluoromethoxy)-6-fluoro-phenyl]-7-methyl-9-[[4-[1-methyl-4-(trifluoromethyl)imidazol-2-yl]phenyl]methyl]purin-8-imine] | ≤ 5.00 | > 7.52 | > 7.00 | > 7.00 |
| COc1ncccc1-c1ncc2c(n1)n(Cc1ccc(-c3nc(C(F)(F)F)cn3C(C)C)cc1)c(=N)n2C [Example T-037] | ≤ 5.00 | 5.00 to 7.00 | 5.00 to 6.60 | 5.00 to 6.60 |
| COc1ncnc(C(F)(F)F)c1-c1ncc2c(n1)n(Cc1ccc(-c3nc(C(F)(F)F)cn3C)cc1)c(=N)n2C [Example T-038, 2-[4-methoxy-6-(trifluoromethyl)pyrimidin-5-yl]-7-methyl-9-[[4-[1-methyl-4-(trifluoromethyl)imidazol-2-yl]phenyl]methyl]purin-8-imine] | ≤ 5.00 | 7.00 to 7.52 | 6.60 to 7.00 | > 7.00 |
